# Earlier results as cited in patent US7030077B2, “Detergent compositions” (Unilever Home and Personal Care USA, a division of Conopco, …, priority 2002, dated 2006).
# Where two headings read alike, the source gives them in different places.
# [1] = other common materials, by contrast, at 20° C.
Structure (SMILES),Water Solubility (g/100 g) [1] [g/100 g],"Water Solubility (g/100 g) (highly water-soluble materials, grams of solid to form a saturated solution in 100 g of deionised water at 20° C.)"
O=BO[O-].[Na+] [Sodium perborate anhydrous],3.7,–
O=P(O)(O)OP(=O)(O)OP(=O)(O)O [Sodium tripolyphosphate anhydrous],15,–
NC(N)=O [Urea],–,>100
